Assays:
[1] = biological target: hNAMPT protein (Homo sapiens (Human), UniProt P43490); test: NAMPT enzyme assay (TR-FRET/HTRF, BodiPY ligand, anti 6His-Tb); assay type: binding; settings: for IC50: NAMPT IC50 range class, read-out: IC50; for inhibition at 1 µM: compound concentration 1 μM, read-out: Percent Inhibition
Text: As discussed above, the invention provides compounds that are useful as inhibitors of the enzyme NAMPT. The NAMPT inhibition of a compound of the invention can be measured using a variety of methods known in the art. For example, the ability of a compound of the invention to inhibit NAMPT enzyme activity can be measured using a homogeneous time resolved fluorescence (HTRF) assay using hNAMPT protein and anti 6His-Tb in buffer treated with a compound of the invention (or control e.g., DMSO) and BodiPY ligand. The TR-FRET signal can be measured using a high throughput microplate reader (e.g., Pherastar). Excitation can be carried out at 320 nm. The percent inhibition value at a single concentration of compound of the invention can be calculated relative to a control treated sample. A concentration response curve can be generated for each compound of the invention and the curve fitted to generate an IC50 value. […] Cat. No. […] To this solution is added test compounds or vehicle control (DMSO) and BodiPY ligand (structure below). The plate is shaken for 1-2 min, sealed and incubated for 1 hour at rt in the dark. The TR-FRET signal is measured using BMG Pherastar (Lanthascreen protocol on BMG Pherastar). Excitation was carried out at 320 nm, and the ratio of emission of BodiPY (520 nm) to terbium (486 nm) was determined. Concentration response curves are generated by calculating the excitation increase in test compound-treated samples relative to DMSO-treated controls. For the assay method described above, test compound percent inhibition values at a single concentration are calculated relative to control (DMSO) treated samples. Compound concentration response curves are fitted to generate IC50 values from those curves. One skilled in the art will appreciate that these values generated either as percentage inhibition at a single concentration or IC50 values are subject to experimental variation.

[2] = system: PC3 cells; test: PC3 growth inhibition (Cell-titer glo, 72 hours); assay type: cell-based; settings: Homo sapiens, PC-3, PC3 cells, 72 hours, Cell-titer glo, read-out: Percent Inhibition (PC3 growth inhibition); for inhibition at 1 µM: compound concentration 1 μM; for inhibition at 1.667 µM: compound concentration 1.667 μM
Procedure: The ability of a compound of the invention to inhibit the growth of cells can be measured using a variety of methods known in the art. For example, the ability of a compound of the invention to inhibit the growth of PC3 cells can be measured. PC3 cells can be plated and incubated overnight under CO2. For each measurement, a compound of the invention (or vehicle e.g., DMSO) can be diluted with AIM serum free medium and added to the cell plate. The cell plate can then be incubated for 72 h under CO2. Cell-titer glo solution can be added and the plates can be incubated protected from light and the amount of luminescences can be measured. Concentration response curves can be generated by calculating the luminescence increase in test compound treated samples relative to DMSO-treated controls. Percentage remaining viability values at a single concentration can be measured. Growth inhibition (GI50) or cell viability (LD50) values can be determined from those curves.
Compounds of the invention were assayed to measure PC3 growth inhibition at a concentration of 1 μM or 1.667 μM (Table 3). To measure PC3 growth inhibition, PC3 cells that were maintained in PRMI1640 growth medium (Life Technologies; Cat. No. 11875) at 37° C. under 5% CO2 are trypsinized and diluted at a density of 8×10^4 cells/ml, 25 ul per well of cells and plated in 384-well black tissue culture plate. The cells are incubated overnight at 37° C. under 5% CO2. For each measurement, a test compounds or vehicle control (DMSO) are diluted with AIM serum free medium and added to the cell plate. Incubate for 72 hours at 37° C. under 5% CO2. 25 μl Cell-titer glo solution (Promega; Cat. No. G8462) is added and the cell plates are incubated for 10 minutes protected from light. The luminescence is measured. Concentration response curves are generated by calculating the luminescence increase in test compound-treated samples relative to DMSO-treated controls. Percentage remaining viability values at a single concentration, growth inhibition (GI50) or cell viability (LD50) values are determined from those curves. One skilled in the art will appreciate that these values are subject to experimental variation.

Chain of hNAMPT protein (P43490 whole entry): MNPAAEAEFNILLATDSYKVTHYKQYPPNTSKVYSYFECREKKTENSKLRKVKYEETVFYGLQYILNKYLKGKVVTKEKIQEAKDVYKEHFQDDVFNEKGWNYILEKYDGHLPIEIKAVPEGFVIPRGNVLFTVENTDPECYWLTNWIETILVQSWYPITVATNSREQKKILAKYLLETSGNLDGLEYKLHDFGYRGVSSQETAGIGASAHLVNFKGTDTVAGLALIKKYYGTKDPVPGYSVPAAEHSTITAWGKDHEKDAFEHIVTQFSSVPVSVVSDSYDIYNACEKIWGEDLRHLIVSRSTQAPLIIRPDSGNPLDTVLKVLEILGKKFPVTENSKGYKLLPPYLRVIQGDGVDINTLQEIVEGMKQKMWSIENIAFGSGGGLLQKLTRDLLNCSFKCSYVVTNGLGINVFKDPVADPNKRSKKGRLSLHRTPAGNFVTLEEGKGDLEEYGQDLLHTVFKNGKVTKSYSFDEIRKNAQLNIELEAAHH

NCc1nc2ccc(C(=O)NCCCn3ccnc3)cc2nc1-c1ccccc1 [Compound I-10, 2-(aminomethyl)-N-[3-(1H-imidazol-1-yl)propyl]-3-phenylquinoxaline-6-carboxamide]
IC50 [1]: 2000 to 10000 nM
inhibition at 1 µM [1]: 23%
inhibition at 1 µM [2]: 99%

O=C(NCCCn1ccnc1)c1ccc2nc(N3Cc4ccccc4C3)c(-c3ccccc3)nc2c1 [Compound I-11, 2-(1,3-dihydro-2H-isoindol-2-yl)-N-[3-(1H-imidazol-1-yl)propyl]-3-phenylquinoxaline-6-carboxamide]
IC50 [1]: 100 to 500 nM
inhibition at 1 µM [1]: 85%
inhibition at 1 µM [2]: -7%

COc1cccc(-c2nc3cc(C(=O)NCCCc4ncc[nH]4)ccc3nc2N2CCC(O)CC2)c1 [Compound I-12, 2-(4-hydroxypiperidin-1-yl)-N-[3-(1H-imidazol-2-yl)propyl]-3-(3-methoxyphenyl)quinoxaline-6-carboxamide]
IC50 [1]: < 100 nM
inhibition at 1 µM [1]: > 99%
inhibition at 1.667 µM [2]: 2%

COc1ccccc1-c1nc2ccc(C(=O)NCCCn3ccnc3)cc2nc1-c1ccccc1 [Compound I-13, N-[3-(1H-imidazol-1-yl)propyl]-2-(2-methoxyphenyl)-3-phenylquinoxaline-6-carboxamide]
IC50 [1]: 100 to 500 nM
inhibition at 1 µM [1]: 69%
inhibition at 1 µM [2]: -6%

O=C(NCCCn1ccnc1)c1ccc2nc(-c3ccccc3)c(N3CCS(=O)(=O)CC3)nc2c1 [Compound I-14, 3-(1,1-dioxidothiomorpholin-4-yl)-N-[3-(1H-imidazol-1-yl)propyl]-2-phenylquinoxaline-6-carboxamide]
IC50 [1]: 2000 to 10000 nM
inhibition at 1 µM [1]: 17%
inhibition at 1 µM [2]: -3%

O=C(NCCCn1ccnc1)c1ccc2nc(-c3ccccc3)c(N3CCC4(COC4)C3)nc2c1 [Compound I-15, N-[3-(1H-imidazol-1-yl)propyl]-3-(2-oxa-6-azaspiro[3.4]oct-6-yl)-2-phenylquinoxaline-6-carboxamide]
IC50 [1]: 2000 to 10000 nM
inhibition at 1 µM [1]: 15%
inhibition at 1 µM [2]: -6%

O=C(NCc1ccc2[nH]ncc2c1)c1ccc2nc(N3CCOCC3)c(-c3ccc(F)cc3)nc2c1 [Compound I-16, 3-(4-fluorophenyl)-N-(1H-indazol-5-ylmethyl)-2-(morpholin-4-yl)quinoxaline-6-carboxamide]
IC50 [1]: 100 to 500 nM
inhibition at 1 µM [1]: 84%
inhibition at 1.667 µM [2]: 39%

N#CC1CCN(c2nc3cc(C(=O)NCCCn4ccnc4)ccc3nc2-c2ccccc2)C1 (stereo not drawn) [Compound I-17, 3-(3-cyanopyrrolidin-1-yl)-N-[3-(1H-imidazol-1-yl)propyl]-2-phenylquinoxaline-6-carboxamide]
IC50 [1]: 2000 to 10000 nM
inhibition at 1 µM [1]: 19%
inhibition at 1 µM [2]: 4%

O=C(NCCCc1ncc[nH]1)c1ccc2nc(N3CCC(N4CCOCC4)CC3)c(-c3ccccc3)nc2c1 [Compound I-18, N-[3-(1H-imidazol-2-yl)propyl]-2-[4-(morpholin-4-yl)piperidin-1-yl]-3-phenylquinoxaline-6-carboxamide]
IC50 [1]: < 100 nM
inhibition at 1 µM [1]: 100%
inhibition at 1.667 µM [2]: 2%

O=C(NCCCn1ccnc1)c1ccc2nc(-c3ccc(F)cc3)c(-c3ccc(F)cc3)nc2c1 [Compound I-19, 2,3-bis(4-fluorophenyl)-N-[3-(1H-imidazol-1-yl)propyl]quinoxaline-6-carboxamide]
IC50 [1]: 100 to 500 nM
inhibition at 1 µM [1]: 82%
inhibition at 1 µM [2]: -1%

O=C(NCCc1c[nH]cn1)c1ccc2nc(-c3ccc(F)cc3)c(-c3ccc(F)cc3)nc2c1 [Compound I-20, 2,3-bis(4-fluorophenyl)-N-[2-(1H-imidazol-4-yl)ethyl]quinoxaline-6-carboxamide]
IC50 [1]: 1000 to 2000 nM
inhibition at 1 µM [1]: 42%
inhibition at 1 µM [2]: 111%

Cn1cc2c(n1)CN(C(=O)c1ccc3nc(-c4ccc(F)cc4)c(-c4ccc(F)cc4)nc3c1)CC2 [Compound I-22, [2,3-bis(4-fluorophenyl)quinoxalin-6-yl](2-methyl-2,4,5,7-tetrahydro-6H-pyrazolo[3,4-c]pyridin-6-yl)methanone]
IC50 [1]: 1000 to 2000 nM
inhibition at 1 µM [1]: 41%
inhibition at 1 µM [2]: 96%

O=C(NCCCc1ncc[nH]1)c1ccc2nc(N3CCC(N4CCOCC4)CC3)c(-c3ccc(F)cc3)nc2c1 [Compound I-23, 3-(4-fluorophenyl)-N-[3-(1H-imidazol-2-yl)propyl]-2-[4-(morpholin-4-yl)piperidin-1-yl]quinoxaline-6-carboxamide]
IC50 [1]: < 100 nM
inhibition at 1 µM [1]: 100%
inhibition at 1.667 µM [2]: 2%

Cc1nc(C)c(-c2nc3ccc(C(=O)NCCCn4ccnc4)cc3nc2-c2ccccc2)s1 [Compound I-24, 2-(2,4-dimethyl-1,3-thiazol-5-yl)-N-[3-(1H-imidazol-1-yl)propyl]-3-phenylquinoxaline-6-carboxamide]
IC50 [1]: 100 to 500 nM
inhibition at 1 µM [1]: 88%
inhibition at 1 µM [2]: -8%

O=C(NCCCc1cccnc1)c1ccc2nc(N3CCC(O)CC3)c(-c3ccc(F)cc3)nc2c1 [Compound I-25, 3-(4-fluorophenyl)-2-(4-hydroxypiperidin-1-yl)-N-[3-(pyridin-3-yl)propyl]quinoxaline-6-carboxamide]
IC50 [1]: < 100 nM
inhibition at 1 µM [1]: 98%
inhibition at 1.667 µM [2]: 2%

Cc1nccn1CCNC(=O)c1ccc2nc(-c3ccc(F)cc3)c(-c3ccc(F)cc3)nc2c1 [Compound I-26, 2,3-bis(4-fluorophenyl)-N-[2-(2-methyl-1H-imidazol-1-yl)ethyl]quinoxaline-6-carboxamide]
IC50 [1]: 1000 to 2000 nM
inhibition at 1 µM [1]: 37%
inhibition at 1 µM [2]: 99%

CC(C)(C)OC(=O)NCC1CCN(C2CCN(c3nc4ccc(C(=O)NCCCn5ccnc5)cc4nc3-c3ccccc3)CC2)CC1 [Compound I-27, tert-butyl{[1′-(6-{[3-(1H-imidazol-1-yl)propyl]carbamoyl}-3-phenylquinoxalin-2-yl)-1,4′-bipiperidin-4-yl]methyl}carbamate]
IC50 [1]: < 100 nM
inhibition at 1 µM [1]: 102%
inhibition at 1 µM [2]: -1%

O=C(c1ccc2nc(-c3ccc(F)cc3)c(-c3ccc(F)cc3)nc2c1)N1CCn2nncc2C1 [Compound I-28, [2,3-bis(4-fluorophenyl)quinoxalin-6-yl](6,7-dihydro[1,2,3]triazolo[1,5-a]pyrazin-5(4H)-yl)methanone]
IC50 [1]: 2000 to 10000 nM
inhibition at 1 µM [1]: 19%
inhibition at 1 µM [2]: 94%

O=C(c1ccc2nc(-c3ccc(F)cc3)c(-c3ccc(F)cc3)nc2c1)N1CCC(c2cccnc2)C1 (stereo not drawn) [Compound I-29, [2,3-bis(4-fluorophenyl)quinoxalin-6-yl][3-(pyridin-3-yl)pyrrolidin-1-yl]methanone]
IC50 [1]: 2000 to 10000 nM
inhibition at 1 µM [1]: 36%
inhibition at 1 µM [2]: 96%

O=C(NCCCn1ccnc1)c1ccc2nc(N3CCC4(CC3)COC4)c(-c3ccccc3)nc2c1 [Compound I-30, N-[3-(1H-imidazol-1-yl)propyl]-2-(2-oxa-7-azaspiro[3.5]non-7-yl)-3-phenylquinoxaline-6-carboxamide]
IC50 [1]: 100 to 500 nM
inhibition at 1 µM [1]: 83%
inhibition at 1 µM [2]: -7%

CC1(C)CN(c2nc3ccc(C(=O)NCCCn4ccnc4)cc3nc2-c2ccccc2)CCO1 [Compound I-31, 2-(2,2-dimethylmorpholin-4-yl)-N-[3-(1H-imidazol-1-yl)propyl]-3-phenylquinoxaline-6-carboxamide]
IC50 [1]: < 100 nM
inhibition at 1 µM [1]: 89%
inhibition at 1 µM [2]: -7%
